The OligoGym collection
HELM strings list units from the 5' end as sugar, base in round brackets, then linkage (d deoxyribose, r ribose, m 2'-O-methyl, p phosphodiester). Strings are as the collection lists them; they lack the last nucleoside at the 3' end of the tested compound. [moe] = 2'-O-(2-methoxyethyl) (MOE); [sp] = phosphorothioate linkage; [m5C] = 5-methylcytosine

The substances below were run against ATXN2 (assay: mouse, dose not given). Details: ASO.

| Substance | 3 h FOB score [score 0-7] |
| --- | --- |
| RNA1{[moe](G)[sp].[moe]([m5C])p.[moe](T)p.[moe](A)p.[moe](A)p.d([m5C])[sp].d(T)[sp].d(G)[sp].d(G)[sp].d(T)[sp].d(T)[sp].d(T)[sp].d(G)[sp].d([m5C])[sp].d([m5C])[sp].[moe]([m5C])p.[moe](T)p.[moe](T)[sp].[moe](G)}$$$$ (last 3' nucleoside missing) | 6.75 |
| RNA1{[moe](G)[sp].[moe](T)p.[moe](G)p.[moe](T)p.[moe](T)p.d([m5C])[sp].d(A)[sp].d(T)[sp].d(G)[sp].d(A)[sp].d([m5C])[sp].d(T)[sp].d(T)[sp].d(T)[sp].d([m5C])[sp].[moe](A)p.[moe](A)p.[moe](G)[sp].[moe](G)}$$$$ (last 3' nucleoside missing) | 3.5 |
| RNA1{[moe](A)[sp].[moe](G)p.[moe]([m5C])p.[moe](T)p.[moe](T)p.[moe](A)p.d(G)[sp].d(A)[sp].d(G)[sp].d(T)[sp].d(T)[sp].d(T)[sp].d(T)[sp].d(T)[sp].d(G)[sp].d([m5C])[sp].[moe]([m5C])p.[moe](T)[sp].[moe](T)}$$$$ (last 3' nucleoside missing) | 5 |
| RNA1{[moe](G)[sp].[moe](G)p.[moe](A)p.[moe](T)p.[moe](A)p.d([m5C])[sp].d(A)[sp].d(A)[sp].d(A)[sp].d(T)[sp].d(T)[sp].d([m5C])[sp].d(T)[sp].d(A)[sp].d(G)[sp].[moe](G)p.[moe]([m5C])p.[moe]([m5C])[sp].[moe](A)}$$$$ (last 3' nucleoside missing) | 4 |
| RNA1{[moe](G)[sp].[moe](A)p.[moe](A)p.[moe]([m5C])p.[moe]([m5C])p.d(A)[sp].d(G)[sp].d(A)[sp].d(A)[sp].d(T)[sp].d(T)[sp].d([m5C])[sp].d(G)[sp].d(G)[sp].d(G)[sp].[moe](T)p.[moe](T)p.[moe](G)[sp].[moe](A)}$$$$ (last 3' nucleoside missing) | 3.75 |
| RNA1{[moe](G)[sp].[moe](T)p.[moe](A)p.[moe]([m5C])p.[moe](T)[sp].d(T)[sp].d([m5C])[sp].d(A)[sp].d([m5C])[sp].d(A)[sp].d(T)[sp].d(T)[sp].d(T)[sp].[moe](G)p.[moe](G)p.[moe](A)[sp].[moe](G)}$$$$ (last 3' nucleoside missing) | 1 |
| RNA1{[moe](A)[sp].[moe](G)p.[moe]([m5C])p.[moe](A)p.[moe](T)p.d([m5C])[sp].d(A)[sp].d(T)[sp].d(T)[sp].d(G)[sp].d(G)[sp].d([m5C])[sp].d(G)[sp].d([m5C])[sp].d(A)[sp].[moe](T)p.[moe](G)p.[moe](G)[sp].[moe](G)}$$$$ (last 3' nucleoside missing) | 5 |
| RNA1{[moe]([m5C])[sp].[moe](T)p.[moe](G)p.[moe](G)p.[moe](T)p.d(T)[sp].d([m5C])[sp].d([m5C])[sp].d(T)[sp].d(T)[sp].d(A)[sp].d([m5C])[sp].d(A)[sp].d(A)[sp].d(T)[sp].[moe](T)p.[moe](A)p.[moe](T)[sp].[moe]([m5C])}$$$$ (last 3' nucleoside missing) | 1 |
| RNA1{[moe](T)[sp].[moe](T)p.[moe](G)p.[moe](A)p.[moe](A)p.d(T)[sp].d(T)[sp].d(A)[sp].d([m5C])[sp].d(A)[sp].d(A)[sp].d(T)[sp].d(G)[sp].d([m5C])[sp].d(G)[sp].[moe](G)p.[moe](T)p.[moe](A)[sp].[moe](T)}$$$$ (last 3' nucleoside missing) | 4 |
| RNA1{[moe](A)[sp].[moe](T)p.[moe](A)p.[moe]([m5C])p.[moe](T)p.d([m5C])[sp].d(T)[sp].d([m5C])[sp].d([m5C])[sp].d(A)[sp].d(T)[sp].d(T)[sp].d(A)[sp].d(T)[sp].d(T)[sp].[moe](T)p.[moe]([m5C])p.[moe](T)[sp].[moe](T)}$$$$ (last 3' nucleoside missing) | 0 |
